US5462927A, “Peptides aiding nerve regeneration” (The Administrators of the Tulane Educational Fund, priority 1992, dated 1995)
Square brackets hold non-standard residues; d marks the D form. Peptide text beside a SMILES is read from it.

How the values were obtained:
Assay type in all cases: in vivo, rat
[1] = system: sectioned sciatic nerve; common extensor muscle of the finger; assay: Muscle weight after sciatic nerve section; settings: for Muscle weight Normalized to Mean Animal Weight: 35d. p.o.
crushed sciatic nerve = assay: Sensorimotor function test (sciatic nerve regeneration assay, foot-flick response to thermal pain); settings: s.c. every 24 hr for approximately 20-25 days; head prints only 'μG/24 HRS'; vs 0.9% NaCl control
Procedure: Female, Sprague-Dawley rats (Charles River Breeding Labs) were used at an age of 7-8 weeks (120-140 g). Under ether anesthesia, the right sciatic nerve was carefully exposed and crushed with constant pressure, hemostatic forceps for 30 sec prior to closure and suturing of the incision. After surgery, the animals were randomly assigned to treatment groups of 10. The test peptides were administered s.c. in 0.9% NaCl in a vol of 0.1 ml. NaCl (0.9%) served as the control. Injections were started immediately after surgery and given every 24 hr thereafter for approximately 20-25 days. The criterion of sciatic nerve regeneration was based on the recovery of the foot-flick response to thermal pain. Beginning 48 hr after surgery, the rats were tested five days a week for the ability to withdraw, from a heat source, the paw innervated by the crushed nerve. All sensorimotor testing was performed between 1:00 and 3:00 p.m. Specifically, the rat was immobilized by wrapping in a towel, and the sole of the lesioned limb was placed over the aperture of a modified d'Amour apparatus. The time required to withdraw the foot was recorded to the nearest 0.1 of sec using a digital stopwatch. If no response occurred by 5 sec, the test was terminated to avoid tissue damage. The observe measuring the foot-flick response was blind to the treatment group being tested. All animals were acclimatized to the testing procedure prior to surgery. Baseline values were obtained by determining the response time for the unlesioned limb.

[2] = system: sectioned sciatic nerve; common extensor muscle of the finger; assay: Characteristics of a single pulse of the common extensor muscle after sciatic nerve section; settings: for Single Pulse: Contraction Time / Single Pulse: Half-Relaxation Time / Single Pulse: Latence / Single Pulse: Muscle Strength Normalized to Muscle Weight / Single Pulse: Speed of Contraction / Single Pulse: Speed of Relaxation / Single Pulse: Strength: 35d. p.o.p.
[3] = Group 2: Tissue col 10.0 μg/0.5 ml (topical)
[4] = Group 3: Tissue col 1.1 μg/10.5 ml (topical)
[5] = Group 4: s.c. 5 μg 1 kg/day (18 days)
[6] = Group 3 (topical in tissucol, lower dose)
[7] = Group 4 (s.c. 5ug.kg.day for 18 days)

C[C@@H](N)C(=O)N[C@@H](CCC(N)=O)C(=O)N[C@@H](Cc1ccc(O)cc1)C(=O)N[C@@H](Cc1ccccc1)C(=O)N[C@@H](CCCNC(=N)N)C(=O)N[C@@H](Cc1c[nH]c2ccccc12)C(=O)NCC(N)=O [BIM-22015, D--Ala--Gln--Tyr--Phe--Arg--Trp--Gly--NH2] (H-[dA]QYFRWG-NH2)
Muscle Weight 35d. p.o. [1, 3]: 67.9 µg | Muscle weight Normalized to Mean Animal Weight [1, 3]: 0.211 | Muscle Weight 35d. p.o. [1, 4]: 59.7 µg | Muscle weight Normalized to Mean Animal Weight [1, 4]: 0.212 | Muscle Weight 35d. p.o. [1, 5]: 73.1 µg | Muscle weight Normalized to Mean Animal Weight [1, 5]: 0.226 | improvement of muscle weight normalized to mean animal weight over the control group 1 ([1]; group 4 (s.c. administration), not statistically significant): 15% | improvement of muscle weight normalized to mean animal weight over the control group 1 ([1]; groups 2 and 3 (topical in tissucol)): little improvement | effect on muscle measurements by route of administration ([1]; topical administration (groups 2 and 3)): largely ineffective | % Reduction of Recovery Time (crushed sciatic nerve): 28% | Single Pulse: Contraction Time ([2]; Group 2 (topical in tissucol)): 28.86 ms | Single Pulse: Half-Relaxation Time ([2]; Group 2 (topical in tissucol)): 64.69 ms | Single Pulse: Latence ([2]; Group 2 (topical in tissucol)): 9.93 ms | Single Pulse: Muscle Strength Normalized to Muscle Weight ([2]; Group 2 (topical in tissucol)): 0.30 g/µg | Single Pulse: Speed of Contraction ([2]; Group 2 (topical in tissucol)): 2419 g/ms | Single Pulse: Speed of Relaxation ([2]; Group 2 (topical in tissucol)): 514 g/ms | Single Pulse: Strength ([2]; Group 2 (topical in tissucol)): 20.03 g | Single Pulse: Contraction Time [2, 6]: 16.37 ms | Single Pulse: Half-Relaxation Time [2, 6]: 40.93 ms | Single Pulse: Latence [2, 6]: 7.65 ms | Single Pulse: Muscle Strength Normalized to Muscle Weight [2, 6]: 0.25 g/µg | Single Pulse: Speed of Contraction [2, 6]: 2939 g/ms | Single Pulse: Speed of Relaxation [2, 6]: 593 g/ms | Single Pulse: Strength [2, 6]: 14.96 g | Single Pulse: Contraction Time [2, 7]: 27.68 ms | Single Pulse: Half-Relaxation Time [2, 7]: 60.72 ms | Single Pulse: Latence [2, 7]: 9.48 ms | Single Pulse: Speed of Contraction [2, 7]: 2420 g/ms | Single Pulse: Speed of Relaxation [2, 7]: 635 g/ms | Single Pulse: Strength [2, 7]: 26.45 g | improvement of muscle strength over control group 1 (column 1, Table 4) ([2]; Group 4 (s.c.), p=0.05): 28% | improvement of speed of muscle contraction compared to group 1 (column 3, Table 4) ([2]; group 4 (s.c.), p=0.01): 300% | speed of relaxation compared to group 1 (column 4, Table 4) ([2]; printed as group 5): dramatically improved
